From PMC5869712 (Scientific Reports, 2018)
Where two headings read alike, the source gives them in different places.

Assays:
BTK = target: T1, BTK (Homo sapiens, UniProt Q06187); assay: Cys-containing kinase family panel (EurofinsCerep); assay type: biochemical
T1 construct: EurofinsCerep (contract assay service)

ITK = target: T2, ITK (Homo sapiens, UniProt Q08881); assay: Cys-containing kinase family panel (EurofinsCerep); assay type: biochemical
T2 construct: EurofinsCerep (contract assay service)
T2 sequence (Q08881 whole entry): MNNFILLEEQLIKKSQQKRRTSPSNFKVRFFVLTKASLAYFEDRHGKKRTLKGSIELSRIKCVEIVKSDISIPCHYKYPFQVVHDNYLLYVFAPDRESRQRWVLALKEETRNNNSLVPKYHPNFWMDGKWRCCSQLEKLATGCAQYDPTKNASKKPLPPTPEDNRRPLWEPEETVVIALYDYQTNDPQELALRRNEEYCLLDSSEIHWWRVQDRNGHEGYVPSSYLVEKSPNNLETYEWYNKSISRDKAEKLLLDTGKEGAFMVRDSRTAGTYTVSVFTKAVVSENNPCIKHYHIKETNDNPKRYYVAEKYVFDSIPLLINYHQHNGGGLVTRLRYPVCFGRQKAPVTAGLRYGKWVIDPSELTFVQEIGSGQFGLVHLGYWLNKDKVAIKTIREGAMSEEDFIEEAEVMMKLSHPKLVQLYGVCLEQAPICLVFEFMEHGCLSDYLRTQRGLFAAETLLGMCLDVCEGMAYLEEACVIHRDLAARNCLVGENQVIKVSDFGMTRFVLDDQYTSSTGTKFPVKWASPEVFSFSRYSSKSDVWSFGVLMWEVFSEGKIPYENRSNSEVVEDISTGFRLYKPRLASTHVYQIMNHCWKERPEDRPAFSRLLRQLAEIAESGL

EGFR = target: T3, EGFR (Homo sapiens, UniProt P00533); assay: Cys-containing kinase family panel (EurofinsCerep); assay type: biochemical
T3 construct: EurofinsCerep (contract assay service)
Excerpt: (§1) The assay protocol guides are commercially available from ChemPartner.

TEC = target: T4, TEC (Homo sapiens, UniProt P42680); assay: Cys-containing kinase family panel (EurofinsCerep); assay type: biochemical
T4 construct: EurofinsCerep (contract assay service)
Excerpt: as §1

TXK = target: T5, TXK (Homo sapiens, UniProt P42681); assay: Cys-containing kinase family panel (EurofinsCerep); assay type: biochemical
T5 construct: EurofinsCerep (contract assay service)
T5 sequence (P42681 whole entry): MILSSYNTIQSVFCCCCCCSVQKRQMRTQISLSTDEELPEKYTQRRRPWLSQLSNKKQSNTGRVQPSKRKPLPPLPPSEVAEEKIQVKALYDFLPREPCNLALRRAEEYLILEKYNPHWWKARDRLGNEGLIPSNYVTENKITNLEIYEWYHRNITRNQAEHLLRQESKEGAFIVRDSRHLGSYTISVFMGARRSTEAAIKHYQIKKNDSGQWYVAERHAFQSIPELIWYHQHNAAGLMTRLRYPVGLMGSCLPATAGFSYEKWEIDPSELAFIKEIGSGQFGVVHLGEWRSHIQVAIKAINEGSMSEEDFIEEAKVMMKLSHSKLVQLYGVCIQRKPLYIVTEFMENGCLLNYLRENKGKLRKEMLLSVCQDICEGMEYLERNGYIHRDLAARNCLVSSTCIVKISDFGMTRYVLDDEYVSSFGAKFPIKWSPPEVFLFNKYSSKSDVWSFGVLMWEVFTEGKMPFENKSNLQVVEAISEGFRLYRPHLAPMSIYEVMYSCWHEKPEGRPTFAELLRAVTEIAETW
Excerpt: as §1

ERBB4 = target: T6, ERBB4 (Homo sapiens, UniProt Q15303); assay: Cys-containing kinase family panel (EurofinsCerep); assay type: biochemical
T6 construct: EurofinsCerep (contract assay service)

ALK = target: T7, ALK (Homo sapiens, UniProt Q9UM73); assay: Eurofins Kinase Profiler panel; assay type: biochemical; conditions: read-out: % inhibition (1μM), DMSO control=100%, lower=stronger
T7 construct: purchased Eurofins KinaseProfiler (Eurofins Pharma Discovery Services UK, Dundee); JAK3 also ChemPartner

ALK4 = target: T8, ALK4 (Homo sapiens, UniProt P36896); assay: Eurofins Kinase Profiler panel; assay type: biochemical; conditions: read-out: % inhibition (1μM), DMSO control=100%, lower=stronger
T8 construct: purchased Eurofins KinaseProfiler (Eurofins Pharma Discovery Services UK, Dundee); JAK3 also ChemPartner

IGF-1R = target: T9, IGF-1R (Homo sapiens, UniProt P08069); assay: Eurofins Kinase Profiler panel; assay type: biochemical; conditions: read-out: % inhibition (1μM), DMSO control=100%, lower=stronger
T9 construct: purchased Eurofins KinaseProfiler (Eurofins Pharma Discovery Services UK, Dundee); JAK3 also ChemPartner
T9 sequence (P08069 31-1367): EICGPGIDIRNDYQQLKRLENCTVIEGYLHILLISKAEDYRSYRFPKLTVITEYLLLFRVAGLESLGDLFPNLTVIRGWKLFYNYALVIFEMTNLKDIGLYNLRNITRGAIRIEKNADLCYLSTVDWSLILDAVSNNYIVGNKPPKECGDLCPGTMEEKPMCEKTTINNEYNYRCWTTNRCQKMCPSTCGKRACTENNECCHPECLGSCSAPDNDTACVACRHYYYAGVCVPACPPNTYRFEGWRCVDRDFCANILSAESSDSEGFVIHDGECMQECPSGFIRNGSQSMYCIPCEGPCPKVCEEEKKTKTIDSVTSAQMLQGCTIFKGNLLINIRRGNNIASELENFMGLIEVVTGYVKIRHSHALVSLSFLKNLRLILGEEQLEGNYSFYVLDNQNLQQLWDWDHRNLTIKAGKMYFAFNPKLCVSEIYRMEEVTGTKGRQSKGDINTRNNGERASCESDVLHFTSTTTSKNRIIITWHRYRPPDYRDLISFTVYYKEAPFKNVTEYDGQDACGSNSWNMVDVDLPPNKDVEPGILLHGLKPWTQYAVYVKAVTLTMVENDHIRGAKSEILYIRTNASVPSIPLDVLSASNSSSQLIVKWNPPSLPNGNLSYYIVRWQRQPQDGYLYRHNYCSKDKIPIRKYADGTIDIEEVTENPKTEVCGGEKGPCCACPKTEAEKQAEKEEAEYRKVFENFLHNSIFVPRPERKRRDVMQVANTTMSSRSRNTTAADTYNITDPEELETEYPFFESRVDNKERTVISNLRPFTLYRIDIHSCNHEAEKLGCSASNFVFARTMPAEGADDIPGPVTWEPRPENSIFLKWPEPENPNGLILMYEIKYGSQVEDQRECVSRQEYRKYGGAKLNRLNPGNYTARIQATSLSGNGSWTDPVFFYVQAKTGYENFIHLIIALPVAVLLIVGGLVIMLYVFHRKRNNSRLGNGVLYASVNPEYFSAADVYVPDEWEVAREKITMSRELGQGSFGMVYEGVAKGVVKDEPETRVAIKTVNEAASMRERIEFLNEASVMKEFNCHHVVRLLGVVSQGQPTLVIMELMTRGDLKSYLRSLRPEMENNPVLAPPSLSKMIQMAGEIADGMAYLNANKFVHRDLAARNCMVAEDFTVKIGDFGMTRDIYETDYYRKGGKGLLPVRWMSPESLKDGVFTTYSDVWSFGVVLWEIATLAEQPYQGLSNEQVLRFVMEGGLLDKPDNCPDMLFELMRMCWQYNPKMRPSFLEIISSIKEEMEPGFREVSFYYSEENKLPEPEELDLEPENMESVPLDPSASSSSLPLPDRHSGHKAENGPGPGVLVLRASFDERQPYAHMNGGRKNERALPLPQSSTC

IKKβ = target: T10, IKKβ (Homo sapiens, UniProt O14920); assay: Eurofins Kinase Profiler panel; assay type: biochemical; conditions: read-out: % inhibition (1μM), DMSO control=100%, lower=stronger
T10 construct: purchased Eurofins KinaseProfiler (Eurofins Pharma Discovery Services UK, Dundee); JAK3 also ChemPartner

JNK1α1 = target: T11, JNK1α1 (Homo sapiens, UniProt P45983); assay: Eurofins Kinase Profiler panel; assay type: biochemical; conditions: read-out: % inhibition (1μM), DMSO control=100%, lower=stronger
T11 construct: purchased Eurofins KinaseProfiler (Eurofins Pharma Discovery Services UK, Dundee); JAK3 also ChemPartner
T11 sequence (P45983 1-384 isoform P45983-2): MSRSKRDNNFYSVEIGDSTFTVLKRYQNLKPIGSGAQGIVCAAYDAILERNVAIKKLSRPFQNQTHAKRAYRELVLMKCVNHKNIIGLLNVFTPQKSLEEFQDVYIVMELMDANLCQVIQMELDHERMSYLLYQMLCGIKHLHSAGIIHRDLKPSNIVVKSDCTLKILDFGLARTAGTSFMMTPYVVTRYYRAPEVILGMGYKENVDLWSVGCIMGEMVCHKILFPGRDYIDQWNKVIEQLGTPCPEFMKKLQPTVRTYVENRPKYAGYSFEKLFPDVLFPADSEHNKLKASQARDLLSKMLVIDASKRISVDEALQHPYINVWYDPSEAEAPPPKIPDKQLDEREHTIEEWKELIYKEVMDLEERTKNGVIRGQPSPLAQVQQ

CDK1 = target: T12, CDK1 (Homo sapiens, UniProt P06493); assay: Eurofins Kinase Profiler panel; assay type: biochemical; conditions: read-out: % inhibition (1μM), DMSO control=100%, lower=stronger
T12 construct: purchased Eurofins KinaseProfiler (Eurofins Pharma Discovery Services UK, Dundee); JAK3 also ChemPartner

KDR = target: T13, KDR (Homo sapiens, UniProt P35968); assay: Eurofins Kinase Profiler panel; assay type: biochemical; conditions: read-out: % inhibition (1μM), DMSO control=100%, lower=stronger
T13 construct: purchased Eurofins KinaseProfiler (Eurofins Pharma Discovery Services UK, Dundee); JAK3 also ChemPartner
T13 sequence (P35968 20-1356): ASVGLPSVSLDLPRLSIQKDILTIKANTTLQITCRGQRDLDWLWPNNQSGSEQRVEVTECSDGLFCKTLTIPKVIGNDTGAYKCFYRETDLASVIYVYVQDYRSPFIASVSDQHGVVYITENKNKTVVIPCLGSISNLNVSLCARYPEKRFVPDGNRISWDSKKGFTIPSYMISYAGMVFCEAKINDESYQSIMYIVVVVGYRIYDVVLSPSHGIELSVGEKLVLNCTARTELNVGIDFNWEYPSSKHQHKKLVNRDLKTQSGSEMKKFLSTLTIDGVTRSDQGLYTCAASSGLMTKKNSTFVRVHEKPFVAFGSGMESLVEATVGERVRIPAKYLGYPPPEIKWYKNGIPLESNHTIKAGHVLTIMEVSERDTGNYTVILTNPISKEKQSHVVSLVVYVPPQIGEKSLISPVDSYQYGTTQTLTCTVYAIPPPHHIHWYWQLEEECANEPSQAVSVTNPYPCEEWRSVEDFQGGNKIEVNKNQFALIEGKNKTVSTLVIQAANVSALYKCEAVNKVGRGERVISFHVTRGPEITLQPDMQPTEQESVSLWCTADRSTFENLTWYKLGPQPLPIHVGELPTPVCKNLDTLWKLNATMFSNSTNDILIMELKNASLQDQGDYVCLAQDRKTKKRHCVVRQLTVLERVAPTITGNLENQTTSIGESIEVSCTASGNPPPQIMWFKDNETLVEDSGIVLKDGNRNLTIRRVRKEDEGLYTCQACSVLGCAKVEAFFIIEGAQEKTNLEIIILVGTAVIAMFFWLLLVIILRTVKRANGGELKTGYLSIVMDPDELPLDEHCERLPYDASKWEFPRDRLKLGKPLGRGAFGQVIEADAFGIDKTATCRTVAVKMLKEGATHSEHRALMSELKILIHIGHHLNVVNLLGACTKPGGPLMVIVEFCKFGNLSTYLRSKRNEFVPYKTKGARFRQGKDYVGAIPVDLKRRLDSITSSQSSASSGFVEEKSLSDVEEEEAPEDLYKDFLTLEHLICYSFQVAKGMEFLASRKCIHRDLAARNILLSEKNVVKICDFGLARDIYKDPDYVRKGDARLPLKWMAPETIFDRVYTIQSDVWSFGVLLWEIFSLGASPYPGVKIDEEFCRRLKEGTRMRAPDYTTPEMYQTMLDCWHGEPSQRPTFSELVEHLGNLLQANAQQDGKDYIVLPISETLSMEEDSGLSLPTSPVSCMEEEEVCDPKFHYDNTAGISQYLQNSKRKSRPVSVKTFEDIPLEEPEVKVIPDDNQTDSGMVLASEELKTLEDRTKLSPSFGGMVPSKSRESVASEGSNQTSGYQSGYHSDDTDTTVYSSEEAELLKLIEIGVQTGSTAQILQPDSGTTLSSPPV

Lyn = target: T14, Lyn (Homo sapiens, UniProt P07948); assay: Eurofins Kinase Profiler panel; assay type: biochemical; conditions: read-out: % inhibition (1μM), DMSO control=100%, lower=stronger
T14 construct: purchased Eurofins KinaseProfiler (Eurofins Pharma Discovery Services UK, Dundee); JAK3 also ChemPartner

MAPK1 = target: T15, MAPK1 (Homo sapiens, UniProt P27361); assay: Eurofins Kinase Profiler panel; assay type: biochemical; conditions: read-out: % inhibition (1μM), DMSO control=100%, lower=stronger
T15 construct: purchased Eurofins KinaseProfiler (Eurofins Pharma Discovery Services UK, Dundee); JAK3 also ChemPartner

MAPKAP-K2 = target: T16, MAPKAP-K2 (Homo sapiens, UniProt P49137); assay: Eurofins Kinase Profiler panel; assay type: biochemical; conditions: read-out: % inhibition (1μM), DMSO control=100%, lower=stronger
T16 construct: purchased Eurofins KinaseProfiler (Eurofins Pharma Discovery Services UK, Dundee); JAK3 also ChemPartner
T16 sequence (P49137 whole entry): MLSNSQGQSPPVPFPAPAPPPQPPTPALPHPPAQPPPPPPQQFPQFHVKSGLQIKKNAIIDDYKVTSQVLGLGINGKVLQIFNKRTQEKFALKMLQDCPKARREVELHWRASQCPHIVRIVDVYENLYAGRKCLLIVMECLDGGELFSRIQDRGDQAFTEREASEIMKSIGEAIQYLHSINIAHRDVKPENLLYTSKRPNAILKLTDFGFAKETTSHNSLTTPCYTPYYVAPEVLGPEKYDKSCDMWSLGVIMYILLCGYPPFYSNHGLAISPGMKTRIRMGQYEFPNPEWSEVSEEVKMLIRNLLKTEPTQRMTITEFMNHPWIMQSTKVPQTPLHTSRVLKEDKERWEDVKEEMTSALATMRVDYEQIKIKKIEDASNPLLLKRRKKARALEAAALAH

CDK9 = target: T17, CDK9 (Homo sapiens, UniProt P50750); assay: Eurofins Kinase Profiler panel; assay type: biochemical; conditions: read-out: % inhibition (1μM), DMSO control=100%, lower=stronger
T17 construct: purchased Eurofins KinaseProfiler (Eurofins Pharma Discovery Services UK, Dundee); JAK3 also ChemPartner
Excerpt: as §1

MSK1 = target: T18, MSK1 (Homo sapiens, UniProt O75582); assay: Eurofins Kinase Profiler panel; assay type: biochemical; conditions: read-out: % inhibition (1μM), DMSO control=100%, lower=stronger
T18 construct: purchased Eurofins Pharma Discovery Services UK Limited (Kinase Profiler screening platform)
Excerpt: as §1

PKCζ = target: T19, PKCζ (Homo sapiens, UniProt Q05513); assay: Eurofins Kinase Profiler panel; assay type: biochemical; conditions: read-out: % inhibition (1μM), DMSO control=100%, lower=stronger
T19 construct: purchased Eurofins KinaseProfiler (Eurofins Pharma Discovery Services UK, Dundee); JAK3 also ChemPartner
Excerpt: as §1

ZIPK = target: T20, ZIPK (Homo sapiens, UniProt O43293); assay: Eurofins Kinase Profiler panel; assay type: biochemical; conditions: read-out: % inhibition (1μM), DMSO control=100%, lower=stronger
T20 construct: purchased Eurofins Pharma Discovery Services UK Limited (Kinase Profiler screening platform)
Excerpt: as §1

MKK4 = target: T21, MKK4 (Mus musculus, UniProt P47809); assay: Eurofins Kinase Profiler panel; assay type: biochemical; conditions: read-out: % inhibition (1μM), DMSO control=100%, lower=stronger
T21 construct: purchased Eurofins KinaseProfiler (Eurofins Pharma Discovery Services UK, Dundee); JAK3 also ChemPartner

MKK7β = target: T22, MKK7β (Homo sapiens, UniProt O14733); assay: Eurofins Kinase Profiler panel; assay type: biochemical
T22 construct: Eurofins Pharma Discovery Services UK Limited (Kinase Profiler service)
T22 sequence (O14733 whole entry): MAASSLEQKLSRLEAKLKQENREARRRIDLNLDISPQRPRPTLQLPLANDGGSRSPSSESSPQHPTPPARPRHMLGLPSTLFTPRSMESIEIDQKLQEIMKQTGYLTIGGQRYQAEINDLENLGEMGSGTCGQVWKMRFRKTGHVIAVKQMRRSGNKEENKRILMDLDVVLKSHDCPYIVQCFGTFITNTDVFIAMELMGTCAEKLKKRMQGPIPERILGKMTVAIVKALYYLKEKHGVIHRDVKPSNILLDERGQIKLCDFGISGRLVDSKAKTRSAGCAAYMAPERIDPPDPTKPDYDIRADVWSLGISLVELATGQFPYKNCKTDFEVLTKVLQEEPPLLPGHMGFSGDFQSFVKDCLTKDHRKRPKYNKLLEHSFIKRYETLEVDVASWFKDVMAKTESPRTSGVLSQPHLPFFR

FGFR1 = target: T23, FGFR1 (Homo sapiens, UniProt P11362); assay: Eurofins Kinase Profiler panel; assay type: biochemical; conditions: read-out: % inhibition (1μM), DMSO control=100%, lower=stronger
T23 construct: purchased Eurofins Pharma Discovery Services UK Limited (Kinase Profiler screening platform)

GCK = target: T24, GCK (Homo sapiens, UniProt Q12851); assay: Eurofins Kinase Profiler panel; assay type: biochemical; conditions: read-out: % inhibition (1μM), DMSO control=100%, lower=stronger
T24 construct: purchased Eurofins Pharma Discovery Services UK Limited (Kinase Profiler screening platform)

[1] = tested on: GM-CSF-induced STAT5 phosphorylation (JAK2); assay: GM-CSF-induced pSTAT5 in total lymphocytes in hPBMCs, flow cytometry; assay type: cell-based; conditions: Homo sapiens, Lymphocyte, hPBMC total lymphocytes, trigger GM-CSF, readout pSTAT5
[2] = Pharmacokinetics in Sprague Dawley rats; assay type: in vivo
[3] = tested on: JAK-STAT pathway in joints of CIA mice; assay: JAK/STAT phosphorylation in joint tissue of CIA mice, Western blot; assay type: in vivo, mouse; conditions: dose-dependent
Excerpt: Proteins were visualized with enhanced chemiluminescence.

[4] = tested on: cytokine gene transcription in joint tissue of CIA mice; assay: Cytokine gene expression in joints of CIA mice by RT-PCR; assay type: in vivo, mouse
[5] = tested on: IL-6-induced JAK/STAT3 phosphorylation in TF-1 cells (JAK1); assay: STAT3 phosphorylation induced by IL-6 in TF-1 cells, Western blot
[6] = tested on: IL-3-induced JAK/STAT5 phosphorylation in TF-1 cells (JAK2); assay: STAT5 phosphorylation induced by IL-3 in TF-1 cells, Western blot
[7] = tested on: G-CSF-induced JAK/STAT3 phosphorylation in HEL cells (JAK1/JAK2); assay: STAT3 phosphorylation induced by G-CSF in HEL cells, Western blot; conditions: for IC50: Homo sapiens
[8] = tested on: GM-CSF-induced JAK/STAT5 phosphorylation in TF-1 cells (JAK2); assay: STAT5 phosphorylation induced by GM-CSF in TF-1 cells, Western blot
[9] = both sexes, Sprague Dawley, rat, iv 5.0 mg/kg, plasma
[10] = both sexes, Sprague Dawley, rat, plasma, iv 5.0 mg/kg
[11] = both sexes, Sprague Dawley, rat, plasma, po 10 mg/kg
[12] = both sexes, Sprague Dawley, rat, po 10 mg/kg, plasma

For `C=CC(=O)N[C@@H]1CCCN(c2ncnc3[nH]ccc23)C1` [RB1], the inhibition at 1 µM (BTK) was -0.95%, the inhibition at 1 µM (ITK) was -5.9% and the inhibition at 1 µM (EGFR) was 11.2%. The inhibition at 1 µM (TEC) was 14%, the inhibition at 1 µM (TXK) was 7.25% and the inhibition at 1 µM (ERBB4) was -3.5%. It also gave an activity at 1 µM (ALK) of 100%, an activity at 1 µM (ALK4) of 101% and an activity at 1 µM (IGF-1R) of 93%. For the same compound, the activity at 1 µM (IKKβ) was 105%, the activity at 1 µM (JNK1α1) was 101% and the activity at 1 µM (CDK1) was 96%. It also gave an activity at 1 µM (KDR) of 96%, an activity at 1 µM (Lyn) of 118% and an activity at 1 µM (MAPK1) of 85%. It also gave an activity at 1 µM (MAPKAP-K2) of 97%, an activity at 1 µM (CDK9) of 101% and an activity at 1 µM (MSK1) of 74%. For the same compound, the activity at 1 µM (PKCζ) was 106%, the activity at 1 µM (ZIPK) was 107% and the activity at 1 µM (MKK4) was 114%. It also gave an IC50 (MKK7β; estimated) greater than 0.8 µM, an activity at 1 µM (MKK7β; read-out: % inhibition (1μM), 1 µM, DMSO control=100%, lower=stronger) of 20% and an activity at 1 µM (FGFR1) of 80%. The activity at 1 µM (GCK) was 80%, the IC50 [1] was greater than 10 µM and the AUC(0-inf) [2, 9] was 933 ng·h/mL. The AUC(0-t) [2, 9] was 802 ng·h/mL, the Cmax [2, 9] was 1090 ng/mL and the Tmax [2, 10] was 0.08 h. For the same compound, the clearance [2, 10] was 97.7 mL/min/kg, the half-life [2, 10] was 14.6 h and the bioavailability ([2]; both sexes, Sprague Dawley, rat, plasma, oral, 10 mg/kg, po 10 mg/kg vs iv 5.0 mg/kg, read-out: F (oral bioavailability)) was 72.5%. The Tmax [2, 11] was 0.25 h, the half-life [2, 11] was 6.9 h and the AUC(0-inf) [2, 12] was 1310 ng·h/mL. For the same compound, the AUC(0-t) [2, 12] was 1160 ng·h/mL, the Cmax [2, 12] was 309 ng/mL and the V ([2]; iv 5.0 mg/kg) was 98.04 L/kg. The CL ([2]; po 10 mg/kg) was 144 mL/min/kg, the V ([2]; po 10 mg/kg) was 77.33 L/kg and the “F (oral bioavailability)” value ([2]; po 10 mg/kg vs iv 5.0 mg/kg) was 72.5%. The “phosphorylation status of JAKs and STATs in joint tissue” value [3] was “hypo-phosphorylation of JAK3, STAT1 and STAT3”, the IL-10 expression [4] was “significantly increased its expression” and the “gene transcription levels of IL-1, IL-2 and IL-6” value [4] was “dose-dependently reduced”. The “TNF-α and IFN-γ gene transcription levels” value ([4]; p < 0.01) was “significantly reduced”, the IC50 ([5]; Homo sapiens, TF-1, read-out: IC50, STAT and JAK phosphorylation) was greater than 50 µM and the “Selectivity JAK1/JAK3” value ([5]; TF-1, IL-6, pSTAT3) was greater than 1000. For the same compound, the IC50 ([6]; Homo sapiens) was greater than 50 µM, the “Selectivity JAK2/JAK3” value ([6]; IL-3, pSTAT5) was greater than 1000 and the “G-CSF-induced phosphorylation of STAT3” value ([7]; HEL cells, RB1 at concentrations over 50 μM) was “not affected”. For the same compound, the “Selectivity JAK1/JAK3” value ([7]; HEL, G-CSF, pSTAT3) was greater than 1000, the “Selectivity JAK2/JAK3” value ([7]; HEL, G-CSF, pSTAT3) was greater than 1000 and the IC50 ([7]; HEL, read-out: IC50 (nM) JAK1) was greater than 50000 nM. The IC50 ([7]; HEL, read-out: IC50 (nM) JAK2) was greater than 50000 nM, the “Selectivity JAK2/JAK3” value ([8]; GM-CSF, pSTAT5) was greater than 1000 and the IC50 ([8]; Homo sapiens) was greater than 50 µM.
